{"source": "patent US7935525B2", "about": "“Inhibition of ATF2 activity to treat cancer” (Mount Sinai School of Medicine, priority 2001, dated 2011)", "key": {"SW1 tumors": {"tested_on": "SW1 tumors", "assay": "Doxycycline-inducible peptide expression in existing SW1 tumors", "assay_type": "in vivo, C3H mice", "from_the_text": "Constructs. ATF2 peptides were cloned into HA-penetratin pcDNA3 vector as described above. For the doxycycline inducible system peptide II was cloned in frame with HA and Penetratin into SacII and XbaI sites of the PUHD10-3 vector (Gossen M., et al., Proc. Natl. Acad. Sci. USA. 1992, 89(12):5547-51). The PeF1PrtTA vector (Gopalkrishnan R. V., et al., Nucleic Acids Res. 1999; 27(24):4775-82) places the rtTA gene under transcriptional control of the human EF-10 promoter. Replication deficient adenovirus expressing peptide II was generated by subcloning the ATF2 peptide cDNA into the corresponding adenovirus vector as previously described (Chen S. H., et al., Proc. Natl. Acad. Sci. USA 1994; 91(8):3054-7).\nDerivation of stable cell lines. Selection of clones stably expressing the rtTA construct was carried out in SW-1 cells in the presence of […] of G418. After the selection period 12 single colonies were picked, expanded and analyzed for activity by assaying for Luciferase activity (Gopalkrishnan R. V., et al., Nucleic Acids Res. 1999; 27(24):4775-82). […] The positive clone, which expresses the rtTA cDNA, was contransfected with PUHDI0-3 peptide II and Pbabe Puro vectors that allow one to establish inducible expression of the respective genes (Gopalkrishnan et al., supra) and single clones were selected with […] of Puromycin. Positive clones were selected by Western blotting.\nTumor growth and metastasis evaluation in vivo. Cell lines established in culture to constitutively or inducibly express the peptide were injected into mice subcutaneously (S.C.). LU1205, FEMX and SW-1 cells that expressed control or peptide II were trypsinized, resuspended in PBS and injected SC (1×10^6) into 6-7 week old mice in the lower flank. When the tumor reached the size of about 50 mm^3, 5 μM of SB203580 was injected into four areas of the LU1205 tumors every 4 days during a 2-week period. For FEMX tumors UCN-01 (2.5 mg/kg) was fed by gavage twice a day, three times per week for a total of 2 weeks. Tumor growth was monitored every two days. […]"}, "p38": {"target": "p38 (Homo sapiens, UniProt Q16539)", "sequence (Q16539 whole entry)": "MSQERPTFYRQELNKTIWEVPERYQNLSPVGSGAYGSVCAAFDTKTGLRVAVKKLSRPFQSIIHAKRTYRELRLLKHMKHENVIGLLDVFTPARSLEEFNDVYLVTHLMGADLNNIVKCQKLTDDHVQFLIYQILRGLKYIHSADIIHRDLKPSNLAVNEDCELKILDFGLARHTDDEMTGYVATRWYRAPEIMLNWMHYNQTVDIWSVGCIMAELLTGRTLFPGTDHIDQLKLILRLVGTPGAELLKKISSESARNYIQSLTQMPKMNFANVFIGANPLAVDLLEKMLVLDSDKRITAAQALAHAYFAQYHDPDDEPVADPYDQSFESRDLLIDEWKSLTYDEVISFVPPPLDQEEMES", "assay": "In vitro phosphorylation of the peptide", "assay_type": "biochemical"}, "SW1 cells": {"tested_on": "SW1 cells", "assay": "Thymidine incorporation (DNA synthesis)", "assay_type": "cell-based, mouse", "settings": "peptide-expressing vs control cells"}, "FEMX cells": {"tested_on": "FEMX cells", "assay": "Apoptosis by FACS (hypodiploid fraction)", "assay_type": "cell-based, human", "experimental": "(§1) Treatment and apoptosis studies of stably transfected melanoma cells. Cells were exposed to UVC at 75 J/m^2 as previously described (Ronai, Z., et al., Oncogene 1998; 16:523-531). SB203580 (1-10 μM) (Calbiochem®, San Diego, Calif.), NCS (50-100 ng/ml) and mitomycin C (MMC) (0.2-1 μM) were used to treat melanoma cells. Flow cytometric analysis was performed on a FACSCalibur™ flow cytometer (Becton Dickinson) using CellQuest™ software as described previously (Nicoletti et al., J. Immunol. Methods 1991; 139:271-279). Cells were pelleted and resuspended in 0.5 ml of hypotonic buffer with 0.1% Triton X-100 containing PI (40 μg/ml) and DNase-free RNase A (1 mg/ml). Cells were incubated at 37° C. for 30 min and analyzed on a FACSCalibur™ flow cytometer (Becton Dickinson). The percentage of cells to the left of the diploid G0/1 peak, characteristic of hypodiploid cells that have lost DNA, was defined as the percentage of apoptotic cells. Analysis was performed with light scatter gating. Surface expression of Fas was determined using anti-Fas-PE antibody (PharMingen® CA) and flow cytometric analysis. Cell surface expression is measured as mean fluorescence intensity (MFI)."}, "[1]": {"tested_on": "MCF7 breast cancer-derived cell line", "assay": "Apoptosis by FACS (hypodiploid fraction)", "assay_type": "cell-based, human", "settings": "peptide-expressing MCF7", "experimental": "[Worded in the source for another cell line; this cell line is reported under the same test.] as §1"}, "ATF2": {"tested_on": "ATF2", "assay": "ATF2 phosphorylation in peptide-expressing melanoma cells", "assay_type": "cell-based, human", "settings": "vs control vector cells"}, "Fas promoter": {"tested_on": "Fas promoter", "assay": "Fas promoter activity (-460 Fas promoter region)", "assay_type": "cell-based, human", "settings": "peptide-expressing LU1205"}, "SW1 melanoma tumors": {"tested_on": "SW1 melanoma tumors", "assay": "Growth of SW1 tumors in FasL-deficient GLD mice", "assay_type": "in vivo", "settings": "compared with C3H", "experimental": "Tumor growth and metastasis evaluation in vivo. Cell lines established in culture to constitutively or inducibly express the peptide were injected into mice subcutaneously (S.C.). LU1205, FEMX and SW-1 cells that expressed control or peptide II were trypsinized, resuspended in PBS and injected SC (1×10^6) into 6-7 week old mice in the lower flank. When the tumor reached the size of about 50 mm^3, 5 μM of SB203580 was injected into four areas of the LU1205 tumors every 4 days during a 2-week period. For FEMX tumors UCN-01 (2.5 mg/kg) was fed by gavage twice a day, three times per week for a total of 2 weeks. Tumor growth was monitored every two days. SW-1 cells expressing peptide II under tet-inducible vector were injected SC (1×10^6). When tumors reached a size of about 50 mm^3, the mice received doxycycline in their drinking water ([…]) for a total of 2-4 weeks. At the end of the experiment, the tumors were excised and weighed. The lungs and other organs were subjected to histopathological examination to detect metastatic lesions."}, "Jun2-Luc": {"tested_on": "Jun2-Luc", "assay": "Jun2-Luc reporter in ATF2 null cells", "assay_type": "cell-based"}, "LU1205 cells": {"tested_on": "LU1205 cells", "assay": "Apoptosis by FACS (hypodiploid fraction)", "assay_type": "cell-based, human", "settings": "peptide-expressing LU1205", "experimental": "as §1"}, "FAS": {"tested_on": "FAS", "assay": "Cell surface FAS receptor by FACS in SW1 cells", "assay_type": "cell-based, mouse", "settings": "peptide-expressing SW1 vs control", "experimental": "Electrophoretic mobility shift assays were performed as described. (Ivanov and Ronada, J Biol Chem 1999; 274(20):14079-89). GST binding assays were performed with GST-peptide II as described (Adler et al., Proc Natl Acad Sci USA 1995; 92 10585-9). SW1 cells expressing control vector or peptide II were subjected to FACS analysis following their incubation with antibodies to the cell surface receptor of FAS as described above."}}, "note": "No end group written: not given here."}
{"substance": "peptide II: N-terminal polypeptide fragment of ATF2, amino acid residues 50-100, expressed from pcDNA3 with HA-penetratin tag (EMTLKFGPARNDSVIVADQTPTPTRFLKNCEEVGLFNELASPFENEFKKAS; also: HA-penetratin tag, position not given here; UniProt P15336 50-100, looked up, fragment)", "values": [{"measurement": "decrease in the growth rate of tumors", "setting": "SW1 tumors; doxycycline in drinking water from 90 mm^3, 32 days", "value": "~2", "unit": "fold"}, {"measurement": "reduction of tumor growth rate", "setting": "SW1 tumors; inducible expression via doxycycline", "value": 50, "unit": "%"}, {"measurement": "degree of apoptosis in tumors (tunnel assay)", "setting": "SW1 tumors; tumors from doxycycline-fed mice", "value": "increase in degree of apoptosis"}, {"measurement": "phosphorylation of the peptide by p38", "setting": "p38", "value": "Neither JNK nor p38 was found capable of phosphorylating"}, {"measurement": "reduction in DNA synthesis level", "setting": "SW1 cells", "value": 50, "unit": "%"}, {"measurement": "increase in the degree of UCN-01-elicited apoptosis", "setting": "FEMX cells; peptide-expressing FEMX vs parent", "value": "> 3", "unit": "fold"}, {"measurement": "apoptotic fraction of UV-treated cells", "setting": "FEMX cells; peptide-expressing FEMX, UV-C 75 J/m2, 36 h, neo control 13%", "value": 28, "unit": "%"}, {"measurement": "increase in sensitivity to UCN-01 elicited apoptosis", "setting": "[1]", "value": "~2", "unit": "fold"}, {"measurement": "increase in degree of apoptosis following UV-treatment relative to non-irradiated cells", "setting": "[1]; neo control 4-fold, 36 h", "value": "~9", "unit": "fold"}, {"measurement": "effect on the basal level of apoptosis", "setting": "[1]; no treatment", "value": "minimal effect"}, {"measurement": "ATF2 phosphorylation after UV-treatment", "setting": "ATF2; UV-treated", "value": "reduced"}, {"measurement": "degree of ATF2 phosphorylation", "setting": "ATF2; non-stressed growth conditions", "value": "higher degree of ATF2 phosphorylation"}, {"measurement": "Fas promoter mediated transcription", "setting": "Fas promoter", "value": "increase in Fas-mediated transcription"}, {"measurement": "blocking growth of SW1 tumors", "setting": "SW1 melanoma tumors", "value": "as efficient in blocking growth"}, {"measurement": "Jun2-Luc activities", "setting": "Jun2-Luc", "value": "did not affect"}, {"measurement": "increase in apoptosis comparable to neo expressing cells", "setting": "LU1205 cells; Adriamycin + verapamil", "value": 10, "unit": "fold"}, {"measurement": "increase in degree of apoptosis over control neo cells given Adriamycin and verapamil", "setting": "LU1205 cells; Adriamycin + verapamil", "value": 50, "unit": "%"}, {"measurement": "apoptotic fraction of UV-treated cells", "setting": "LU1205 cells; UV-C 75 J/m2, 36 h, neo control 15%", "value": 38, "unit": "%"}, {"measurement": "increase in the degree of cell death", "setting": "LU1205 cells; higher doses (10 μM) of SB203580, 36 h", "value": "greater than 6 fold"}, {"measurement": "increase in cell death", "setting": "LU1205 cells; low doses of SB203580, 36 h", "value": 3, "unit": "fold"}, {"measurement": "increase in the sensitivity to UV-induced apoptosis", "setting": "LU1205 cells; treatment with JAK inhibitor AG490", "value": 3, "unit": "fold"}, {"measurement": "level of FAS on the cells", "setting": "FAS", "value": "greatly increased"}]}
